Source: paper PMC8592419 (PLoS ONE, 2021)
≈ marks a conversion by molar mass, not a printed value. Each block holds one compound with its values, some of them ahead of it. Where a SMILES comes first, the peptide text is derived from it.

Tests used:
[1] = tested on: M. abscessus clinical isolate MAB01; experiment: In vitro susceptibility testing (DST), CLSI broth microdilution; type: cell-based, M. abscessus subsp. abscessus; parameters: key to DST profile, interpretation, Day 3 / DST profile, interpretation, Day 5 / DST profile, interpretation, Day 14: S, susceptible; I, intermediate; R, resistant
Protocol: (§1) Drug susceptibility testing (DST) was performed according to the Clinical and Laboratory Standards Institute (CLSI) guidelines M24-A2 [42] using the broth microdilution method to determine the minimum inhibitory concentration (MIC). […] Colonies were grown at an adjusted cell density to a 0.5 McFarland standard and further diluted to 5×10^5 CFU/ml. […] These were then incubated at 37°C for 3, 5 and 14 days. The MIC was defined as the concentration in which no visible growth was observed. The results were interpreted according to the guidelines of CLSI. Inducible resistance was inferred by changes in MIC values from being susceptible at day 3 to resistant at day 14.

[2] = tested on: M. abscessus clinical isolate MAB02; experiment: as above; type: cell-based, M. abscessus subsp. abscessus; parameters: key to DST profile, interpretation, Day 3 / DST profile, interpretation, Day 5 / DST profile, interpretation, Day 14: S, susceptible; I, intermediate; R, resistant
Protocol: as §1

[3] = tested on: M. abscessus clinical isolate MAB03; experiment: as above; type: cell-based, M. abscessus subsp. abscessus; parameters: key to DST profile, interpretation, Day 3 / DST profile, interpretation, Day 5 / DST profile, interpretation, Day 14: S, susceptible; I, intermediate; R, resistant
Protocol: as §1

[4] = tested on: M. abscessus clinical isolate MAB04; experiment: as above; type: cell-based, M. abscessus subsp. abscessus; parameters: key to DST profile, interpretation, Day 3 / DST profile, interpretation, Day 5 / DST profile, interpretation, Day 14: S, susceptible; I, intermediate; R, resistant
Protocol: as §1

[5] = tested on: M. abscessus clinical isolate MAB05; experiment: as above; type: cell-based, M. abscessus subsp. abscessus; parameters: key to DST profile, interpretation, Day 3 / DST profile, interpretation, Day 5 / DST profile, interpretation, Day 14: S, susceptible; I, intermediate; R, resistant
Protocol: as §1

[6] = tested on: M. abscessus clinical isolate MAB06; experiment: as above; type: cell-based, M. abscessus subsp. abscessus; parameters: key to DST profile, interpretation, Day 3 / DST profile, interpretation, Day 5 / DST profile, interpretation, Day 14: S, susceptible; I, intermediate; R, resistant
Protocol: as §1

[7] = tested on: M. abscessus clinical isolate MAB07; experiment: as above; type: cell-based, M. abscessus subsp. abscessus; parameters: key to DST profile, interpretation, Day 3 / DST profile, interpretation, Day 5 / DST profile, interpretation, Day 14: S, susceptible; I, intermediate; R, resistant
Protocol: as §1

[8] = tested on: M. abscessus clinical isolate MAB08; experiment: as above; type: cell-based, M. abscessus subsp. abscessus; parameters: key to DST profile, interpretation, Day 3 / DST profile, interpretation, Day 5 / DST profile, interpretation, Day 14: S, susceptible; I, intermediate; R, resistant
Protocol: as §1

[9] = tested on: M. abscessus clinical isolate MAB09; experiment: as above; type: cell-based, M. abscessus subsp. abscessus; parameters: key to DST profile, interpretation, Day 3 / DST profile, interpretation, Day 5 / DST profile, interpretation, Day 14: S, susceptible; I, intermediate; R, resistant
Protocol: as §1

[10] = tested on: M. abscessus clinical isolate MAB10; experiment: as above; type: cell-based, M. abscessus subsp. abscessus; parameters: key to DST profile, interpretation, Day 3 / DST profile, interpretation, Day 5 / DST profile, interpretation, Day 14: S, susceptible; I, intermediate; R, resistant
Protocol: as §1

[11] = tested on: M. abscessus clinical isolate MAB11; experiment: as above; type: cell-based, M. abscessus subsp. abscessus; parameters: key to DST profile, interpretation, Day 3 / DST profile, interpretation, Day 5 / DST profile, interpretation, Day 14: S, susceptible; I, intermediate; R, resistant
Protocol: as §1

[12] = tested on: M. abscessus clinical isolate MAB12; experiment: as above; type: cell-based, M. abscessus subsp. massiliense; parameters: key to DST profile, interpretation, Day 3 / DST profile, interpretation, Day 5 / DST profile, interpretation, Day 14: S, susceptible; I, intermediate; R, resistant
Protocol: as §1

[13] = tested on: M. abscessus clinical isolate MAB13; experiment: as above; type: cell-based, M. abscessus subsp. massiliense; parameters: key to DST profile, interpretation, Day 3 / DST profile, interpretation, Day 5 / DST profile, interpretation, Day 14: S, susceptible; I, intermediate; R, resistant
Protocol: as §1

[14] = tested on: M. abscessus clinical isolate MAB14; experiment: as above; type: cell-based, M. abscessus subsp. massiliense; parameters: key to DST profile, interpretation, Day 3 / DST profile, interpretation, Day 5 / DST profile, interpretation, Day 14: S, susceptible; I, intermediate; R, resistant
Protocol: as §1

[15] = tested on: M. abscessus clinical isolate MAB15; experiment: as above; type: cell-based, M. abscessus subsp. massiliense; parameters: key to DST profile, interpretation, Day 3 / DST profile, interpretation, Day 5 / DST profile, interpretation, Day 14: S, susceptible; I, intermediate; R, resistant
Protocol: as §1

[16] = tested on: M. abscessus clinical isolate MAB16; experiment: as above; type: cell-based, M. abscessus subsp. massiliense; parameters: key to DST profile, interpretation, Day 3 / DST profile, interpretation, Day 5 / DST profile, interpretation, Day 14: S, susceptible; I, intermediate; R, resistant
Protocol: as §1

Mab ATCC19977 strain = type: cell-based, Mycobacterium abscessus
Protocol: Briefly, serial dilutions of the AMPs were prepared with potassium phosphate buffer (PPB) from the concentration range of 3.125 to 400 μg/ml and then 50 μl of each dilution were added to each 96-well plate. Colonies of the isolate were suspended and then further diluted in Mueller-Hinton broth to obtain a final concentration of 1×10^3 CFU/ml (optimized according to the available AMP stock concentration). Fifty microliters of this inoculum were added to each well of the plates. The plates were incubated for 3 days at 37°C. Plain media and bacterial suspensions without AMPs were used as negative and positive controls. The MIC values were read and recorded. All assays were performed in duplicate and two independent experiments.

[17] = not given; remark: listed apart in the source
[18] = Mycobacteroides abscessus, 120 h, day 5, read-out: DST profile, MIC value, Day 5

MIC [1, 18]: 64 µg/mL (≈ 109 µM) | MIC [2, 18]: 8 µg/mL (≈ 13.7 µM) | MIC [3, 18]: 4 µg/mL (≈ 6.83 µM) | MIC [4, 18]: 8 µg/mL (≈ 13.7 µM) | MIC [5, 18]: 32 µg/mL (≈ 54.6 µM) | MIC [6, 18]: 8 µg/mL (≈ 13.7 µM) | MIC [7, 18]: 8 µg/mL (≈ 13.7 µM) | MIC [8, 18]: 8 µg/mL (≈ 13.7 µM) | MIC [9, 18]: 8 µg/mL (≈ 13.7 µM) | MIC [10, 18]: 64 µg/mL (≈ 109 µM) | MIC [11, 18]: 16 µg/mL (≈ 27.3 µM) | MIC [12, 18]: 8 µg/mL (≈ 13.7 µM) | MIC [13, 18]: 8 µg/mL (≈ 13.7 µM) | MIC [14, 18]: 64 µg/mL (≈ 109 µM) | MIC [15, 18]: 8 µg/mL (≈ 13.7 µM) | MIC [16, 18]: 32 µg/mL (≈ 54.6 µM)
Compound: NCC[C@H](O)C(=O)N[C@@H]1C[C@H](N)[C@@H](O[C@H]2O[C@H](CN)[C@@H](O)[C@H](O)[C@H]2O)[C@H](O)[C@H]1O[C@H]1O[C@H](CO)[C@@H](O)[C@H](N)[C@H]1O [AMK, Amikacin]
DST profile, interpretation, Day 5 ([1]; day 5, CLSI interpretation): R | DST profile, interpretation, Day 5 ([2]; day 5, CLSI interpretation): S | DST profile, interpretation, Day 5 ([3]; day 5, CLSI interpretation): S | DST profile, interpretation, Day 5 ([4]; day 5, CLSI interpretation): S | DST profile, interpretation, Day 5 ([5]; day 5, CLSI interpretation): I | DST profile, interpretation, Day 5 ([6]; day 5, CLSI interpretation): S | DST profile, interpretation, Day 5 ([7]; day 5, CLSI interpretation): S | DST profile, interpretation, Day 5 ([8]; day 5, CLSI interpretation): S | DST profile, interpretation, Day 5 ([9]; day 5, CLSI interpretation): S | DST profile, interpretation, Day 5 ([10]; day 5, CLSI interpretation): R | DST profile, interpretation, Day 5 ([11]; day 5, CLSI interpretation): S | DST profile, interpretation, Day 5 ([12]; day 5, CLSI interpretation): S | DST profile, interpretation, Day 5 ([13]; day 5, CLSI interpretation): S | DST profile, interpretation, Day 5 ([14]; day 5, CLSI interpretation): R | DST profile, interpretation, Day 5 ([15]; day 5, CLSI interpretation): S | DST profile, interpretation, Day 5 ([16]; day 5, CLSI interpretation): I

Compound: CC(C)C[C@H](NC(=O)[C@H](CCCCN)NC(=O)[C@H](CC(C)C)NC(=O)[C@@H](N)CC(C)C)C(=O)N[C@@H](Cc1ccccc1)C(=O)N[C@@H](Cc1ccccc1)C(=O)N1CCC[C@H]1C(=O)N[C@@H](Cc1ccccc1)C(=O)N[C@@H](CC(C)C)C(=O)N[C@@H](CCC(=O)O)C(=O)N[C@H](C(=O)NCC(=O)N[C@@H](CCC(=O)O)C(=O)O)[C@@H](C)O [Pug-1] (H-LLKLFFPFLETGE-OH)
MIC values (Mab ATCC19977 strain): >400 µg/mL

Compound: CC(C)[C@H](NC(=O)[C@@H](NC(=O)[C@H](CO)NC(=O)CNC(=O)[C@@H](NC(=O)[C@H](C)NC(=O)CN)C(C)C)C(C)C)C(=O)O [Pug-2] (H-GAVGSVV-OH)
MIC values (Mab ATCC19977 strain): >400 µg/mL

Compound: CC(C)C[C@H](N)C(=O)NCC(=O)N[C@H](C(=O)N[C@@H](Cc1ccc(O)cc1)C(=O)O)[C@@H](C)O [Pug-3] (H-LGTY-OH)
MIC values (Mab ATCC19977 strain): >400 µg/mL

Compound: CC(C)C[C@H](NC(=O)[C@H](Cc1ccccc1)NC(=O)[C@H](CO)NC(=O)[C@@H]1CCCN1C(=O)[C@@H](N)Cc1ccccc1)C(=O)N[C@H](C(=O)NCC(=O)N[C@@H](CCCNC(=N)N)C(=O)O)C(C)C [Pug-4] (H-FPSFLVGR-OH)
MIC values (Mab ATCC19977 strain): >400 µg/mL

Compound: CC[C@H](C)[C@H](NC(=O)[C@H](CCCCN)NC(=O)[C@H](CCCNC(=N)N)NC(=O)CNC(=O)[C@H](CC(C)C)NC(=O)[C@H](CO)NC(=O)[C@H](CCCNC(=N)N)NC(=O)[C@H](CC(C)C)NC(=O)CNC(=O)CN)C(=O)N[C@@H](CC(C)C)C(=O)N[C@@H](CCCNC(=N)N)C(=O)N[C@@H](C)C(=O)N[C@@H](Cc1c[nH]c2ccccc12)C(=O)N[C@@H](CCCCN)C(=O)N[C@@H](CCCCN)C(=O)O [S62] (H-GGLRSLGRKILRAWKK-OH)
MIC values (Mab ATCC19977 strain): 200 µg/mL (≈ 109 µM) | MIC after 3 days, MAB01 and MAB03: < 50 µg/mL | MIC within 24 h, majority of isolates (10/16) [17]: < 50 µg/mL
